Experimental data reported in patent US7393856B2, “Anti-viral uses of borinic acid complexes” (Anacor Pharmaceuticals, Inc., priority 2004, dated 2008).

Legend:
[1] = In vitro anti-viral activity for HSV-2; format: cell-based; settings: HSV-2 assay; toxic concentration that kills 50% of cells; read-out: Anti-HSV-2 Activity TC50
[2] = tested on: HSV-2; assay: In vitro anti-viral activity for HSV-2; format: cell-based; settings: Human alphaherpesvirus 2
[3] = In vitro anti-viral activity for HSV-1; format: cell-based; settings: HSV-1 assay; toxic concentration that kills 50% of cells; read-out: Anti-HSV-1 Activity TC50
[4] = tested on: HSV-1; assay: In vitro anti-viral activity for HSV-1; format: cell-based; settings: Human alphaherpesvirus 1
[5] = tested on: HIV-1; assay: In vitro anti-viral activity for HIV-1; format: cell-based; settings: Human immunodeficiency virus 1
[6] = In vitro anti-viral activity for HIV-1; format: cell-based; settings: HIV-1 assay; toxic concentration that kills 50% of cells; read-out: Anti-HIV-1 Activity TC50
[7] = In vitro anti-viral activity for HIV-2; format: cell-based; settings: HIV-2 assay; toxic concentration that kills 50% of cells; read-out: Anti-HIV-2 Activity TC50
[8] = tested on: HIV-2; assay: In vitro anti-viral activity for HIV-2; format: cell-based; settings: Human immunodeficiency virus 2
[9] = HepG2 2.15 anti-viral evaluation assay (in vitro anti-HBV activity); format: cell-based, HBV aywl strain; settings: human, HepG2 2.2.15 cells (produce HBV aywl strain); HepG2 2.2.15 cells; positive control; read-out: Anti-HBV TC50
Description: (§1) HepG2 2.2.15 cells, which produce HBV aywl strain, were plated in 96-well collagen coated microtiter plates at a density of 2.5×10^4/well with DMEM medium supplemented with 2% fetal bovine serum. One day following plating of cells, the wells were washed and the medium was replaced with complete medium containing the test compound diluted in the medium in a half-log series.
(§2) The medium was replaced once with the fresh medium containing the freshly diluted compound three days post the initial addition of the lamivudine, a positive control compound. Cell viability was determined using CellTiter 96® Reagent (Promega, Madison, Wis.) according to the manufacturer's protocol, using a Vmax plate reader (Molecular Devices, Sunnyvale, Calif.). The mixture is metabolized by the mitochondrial enzymes of metabolically active cells to a soluble formazan product, allowing the rapid quantitative analysis of cell numbers. The media was removed and replaced with 100 μL of fresh media and 10 μL of Cell Titer 96. […] Percent cell viability of compound treated wells compared to no compound controls was calculated using an in-house computer program which graphs the percent reduction in viral cytopathic effects and the cell numbers at each drug concentration relative to control values.

[10] = tested on: HBV; assay: as above; format: cell-based, HBV aywl strain
Description: as §1, §2

| SMILES | CC50 [1] [µM] | IC50 [2] [µM] | CC50 [3] [µM] | IC50 [4] [µM] | IC50 [5] [µM] | CC50 [6] [µM] | CC50 [7] [µM] | IC50 [8] [µM] | CC50 [9] [µM] | Anti-viral Selectivity Index ([10]; HBV, TC50/IC50) | IC50 ([10]; Hepatitis B virus, HepG2 2.2.15 cells, positive control) [µM] |
| --- | --- | --- | --- | --- | --- | --- | --- | --- | --- | --- | --- |
| Nc1nc2c(ncn2COCCO)c(=O)[nH]1 [Acyclovir, reference compound] | > 100 | 7.61 | > 100 | 18 |  |  |  |  |  |  |  |
| Fc1ccc(B(Oc2cccc3cccnc23)c2ccc(Cl)cc2)cc1 [Compound 15, (4-Fluorophenyl)(4-chlorophenyl)borinic acid quinolin-8-yl ester] | 32.9 | > 50 | > 32 | 9.68 | 0.17 | 2.5 | 0.53 | 0.04 |  |  |  |
| Nc1ccn([C@@H]2CS[C@H](CO)O2)c(=O)n1 [Lamivudine] |  |  |  |  |  |  |  |  | > 1 | >1075 | 0.0093 |
